Results on one molecule are retold here after patent US10758545B2, “Methods to treat neurological diseases” (UNIVERSITY OF SOUTHERN CALIFORNIA, priority 2015, dated 2020).

The test system of this assay is C9ORF72 patient iMNs. The assay can be described thus: induced motor neuron (iMN) survival assay, glutamate treatment. It counts as cell-based, human. The conditions noted are these: excess glutamate (10 μM, 12 hrs); longitudinal tracking, log-rank. As for the experimental part:
For the glutamate treatment conditions, 10 μM glutamate was added to the culture medium on day 17 and removed after 12 hrs. Cells were then maintained in N3 medium with neurotrophic factors without RepSox. For the glutamate treatment conditions with glutamate receptor antagonists, cultures were co-treated with 10 μM MK801 and CNQX, and 2 μM Nimodipine during the 12 hr glutamate treatment. The antagonists were maintained for the remainder of the experiment. For the neurotrophic factor withdrawal condition, BDNF, GDNF, and CNTF were removed from the culture medium starting at day 17. Longitudinal tracking was performed by imaging neuronal cultures in a Nikon Biostation CT or Molecular Devices ImageExpress once every 24 hrs starting at day 17. Tracking of neuronal survival was performed using SVcell 2.0 (DRVision Technologies).

As for `Cc1cccc(/C=N/Nc2cc(N3CCOCC3)nc(OCCc3ccccn3)n2)c1` [apilimod], the “survival of C9ORF72 patient iMNs” value is “increased the survival”.
